Test results as given in PubChem BioAssay (NCI).
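GI50: concentration for 50% inhibition of growth. TGI: total growth inhibition.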

Key:
Assay in all cases: growth of human tumour cells (NCI), 384-well format
786-0 renal = test system: 786-0 renal
A498 renal = test system: A498 renal
A549 NSCLC = test system: A549 NSCLC
ACHN renal = test system: ACHN renal
BT-549 breast = test system: BT-549 breast
CAKI-1 renal = test system: CAKI-1 renal
CCRF-CEM leukemia = test system: CCRF-CEM leukemia
COLO 205 colon = test system: COLO 205 colon
DU-145 prostate = test system: DU-145 prostate
EKVX NSCLC = test system: EKVX NSCLC
HCC-2998 colon = test system: HCC-2998 colon
HCT-15 colon = test system: HCT-15 colon
HL-60(TB) leukemia = test system: HL-60(TB) leukemia
HOP-62 NSCLC = test system: HOP-62 NSCLC
HOP-92 NSCLC = test system: HOP-92 NSCLC
HS 578T breast = test system: HS 578T breast
HT29 colon = test system: HT29 colon
IGROV1 ovarian = test system: IGROV1 ovarian
K-562 leukemia = test system: K-562 leukemia
KM12 colon = test system: KM12 colon
LOX IMVI melanoma = test system: LOX IMVI melanoma
M14 melanoma = test system: M14 melanoma
MALME-3M melanoma = test system: MALME-3M melanoma
MCF7 breast = test system: MCF7 breast
MDA-MB-231 breast = test system: MDA-MB-231 breast
MDA-MB-435 melanoma = test system: MDA-MB-435 melanoma
MDA-MB-468 breast = test system: MDA-MB-468 breast
MOLT-4 leukemia = test system: MOLT-4 leukemia
NCI-H226 lung = test system: NCI-H226 lung
NCI-H23 lung = test system: NCI-H23 lung
NCI-H322M lung = test system: NCI-H322M lung
NCI-H460 NSCLC = test system: NCI-H460 NSCLC
NCI-H522 lung = test system: NCI-H522 lung
NCI/ADR-RES ovarian = test system: NCI/ADR-RES ovarian
OVCAR-3 ovarian = test system: OVCAR-3 ovarian
OVCAR-4 ovarian = test system: OVCAR-4 ovarian
OVCAR-5 ovarian = test system: OVCAR-5 ovarian
OVCAR-8 ovarian = test system: OVCAR-8 ovarian
PC-3 prostate = test system: PC-3 prostate
RPMI-8226 leukemia = test system: RPMI-8226 leukemia
RXF 393 renal = test system: RXF 393 renal
SF-268 CNS = test system: SF-268 CNS
SF-295 CNS = test system: SF-295 CNS
SF-539 CNS = test system: SF-539 CNS
SK-MEL-28 melanoma = test system: SK-MEL-28 melanoma
SK-MEL-5 melanoma = test system: SK-MEL-5 melanoma
SK-OV-3 ovarian = test system: SK-OV-3 ovarian
SN12C renal = test system: SN12C renal
SNB-19 CNS = test system: SNB-19 CNS
SNB-75 CNS = test system: SNB-75 CNS
SW-620 colon = test system: SW-620 colon
T-47D breast = test system: T-47D breast
TK-10 renal = test system: TK-10 renal
UACC-257 melanoma = test system: UACC-257 melanoma
UACC-62 melanoma = test system: UACC-62 melanoma
UO-31 renal = test system: UO-31 renal

SMILES: CC1(C)CN(c2cc(C(F)(F)F)cc3cncn23)CCC12NC(=O)NC2=O (configuration not stated)
- GI50 ([…]-0 renal): 35.1 µM
- TGI (786-0 renal): > 100 µM
- GI50 (A498 renal): 26 µM
- TGI (A498 renal): > 100 µM
- GI50 (A549 NSCLC): 35.3 µM
- TGI (A549 NSCLC): > 100 µM
- GI50 (ACHN renal): 38.2 µM
- TGI (ACHN renal): > 100 µM
- GI50 (BT-549 breast): 19.8 µM
- TGI (BT-549 breast): > 100 µM
- GI50 (CAKI-1 renal): 30.6 µM
- TGI (CAKI-1 renal): > 100 µM
- GI50 (CCRF-CEM leukemia): 12 µM
- TGI (CCRF-CEM leukemia): 26.7 µM
- GI50 (COLO 205 colon): 68.9 µM
- TGI (COLO 205 colon): > 100 µM
- GI50 (DU-145 prostate): 40 µM
- TGI (DU-145 prostate): > 100 µM
- GI50 (EKVX NSCLC): 15.1 µM
- TGI (EKVX NSCLC): 59.7 µM
- GI50 (HCC-2998 colon): 29.4 µM
- TGI (HCC-2998 colon): 73.9 µM
- GI50 (HCT-15 colon): 40.6 µM
- TGI (HCT-15 colon): > 100 µM
- GI50 (HL-60(TB) leukemia): 14.5 µM
- TGI (HL-60(TB) leukemia): 27.8 µM
- GI50 (HOP-62 NSCLC): 28.3 µM
- TGI (HOP-62 NSCLC): > 100 µM
- GI50 (HOP-92 NSCLC): 26.1 µM
- TGI (HOP-92 NSCLC): > 100 µM
- GI50 (HS 578T breast): 12.9 µM
- TGI (HS 578T breast): 35.6 µM
- GI50 (HT29 colon): 46 µM
- TGI (HT29 colon): > 100 µM
- GI50 (IGROV1 ovarian): 27.8 µM
- TGI (IGROV1 ovarian): 75.8 µM
- GI50 (K-562 leukemia): 42.6 µM
- TGI (K-562 leukemia): > 100 µM
- GI50 (KM12 colon): 36 µM
- TGI (KM12 colon): > 100 µM
- GI50 (LOX IMVI melanoma): 32.5 µM
- TGI (LOX IMVI melanoma): > 100 µM
- GI50 (M14 melanoma): 48.1 µM
- TGI (M14 melanoma): > 100 µM
- GI50 (MALME-3M melanoma): 28.1 µM
- TGI (MALME-3M melanoma): 88.7 µM
- GI50 (MCF7 breast): 26 µM
- TGI (MCF7 breast): 99.6 µM
- GI50 (MDA-MB-231 breast): 32.2 µM
- TGI (MDA-MB-231 breast): > 100 µM
- GI50 (MDA-MB-435 melanoma): 62.2 µM
- TGI (MDA-MB-435 melanoma): > 100 µM
- GI50 (MDA-MB-468 breast): 12.5 µM
- TGI (MDA-MB-468 breast): 35.2 µM
- GI50 (MOLT-4 leukemia): 12.3 µM
- TGI (MOLT-4 leukemia): 25.1 µM
- GI50 (NCI-H226 lung): 26.6 µM
- TGI (NCI-H226 lung): > 100 µM
- GI50 (NCI-H23 lung): 30.7 µM
- TGI (NCI-H23 lung): > 100 µM
- GI50 (NCI-H322M lung): 57.8 µM
- TGI (NCI-H322M lung): > 100 µM
- GI50 (NCI-H460 NSCLC): 38.1 µM
- TGI (NCI-H460 NSCLC): > 100 µM
- GI50 (NCI-H522 lung): 54 µM
- TGI (NCI-H522 lung): > 100 µM
- GI50 (NCI/ADR-RES ovarian): > 100 µM
- TGI (NCI/ADR-RES ovarian): > 100 µM
- GI50 (OVCAR-3 ovarian): 28.4 µM
- TGI (OVCAR-3 ovarian): > 100 µM
- GI50 (OVCAR-4 ovarian): 18.8 µM
- TGI (OVCAR-4 ovarian): 82.6 µM
- GI50 (OVCAR-5 ovarian): 39.4 µM
- TGI (OVCAR-5 ovarian): > 100 µM
- GI50 (OVCAR-8 ovarian): 33.5 µM
- TGI (OVCAR-8 ovarian): > 100 µM
- GI50 (PC-3 prostate): 26.2 µM
- TGI (PC-3 prostate): 99.2 µM
- GI50 (RPMI-8226 leukemia): 15.3 µM
- TGI (RPMI-8226 leukemia): 45.8 µM
- GI50 (RXF 393 renal): 29.4 µM
- TGI (RXF 393 renal): > 100 µM
- GI50 (SF-268 CNS): 26.9 µM
- TGI (SF-268 CNS): > 100 µM
- GI50 (SF-295 CNS): 24.8 µM
- TGI (SF-295 CNS): 74.8 µM
- GI50 (SF-539 CNS): 91.7 µM
- TGI (SF-539 CNS): > 100 µM
- GI50 (SK-MEL-28 melanoma): 47.8 µM
- TGI (SK-MEL-28 melanoma): > 100 µM
- GI50 (SK-MEL-5 melanoma): 33.5 µM
- TGI (SK-MEL-5 melanoma): 95.7 µM
- GI50 (SK-OV-3 ovarian): 40.9 µM
- TGI (SK-OV-3 ovarian): > 100 µM
- GI50 (SN12C renal): 40.4 µM
- TGI (SN12C renal): > 100 µM
- GI50 (SNB-19 CNS): 55.7 µM
- TGI (SNB-19 CNS): > 100 µM
- GI50 (SNB-75 CNS): 42.4 µM
- TGI (SNB-75 CNS): > 100 µM
- GI50 (SW-620 colon): > 100 µM
- TGI (SW-620 colon): > 100 µM
- GI50 (T-47D breast): 29.2 µM
- TGI (T-47D breast): > 100 µM
- GI50 (TK-10 renal): 35.5 µM
- TGI (TK-10 renal): > 100 µM
- GI50 (UACC-257 melanoma): 61.3 µM
- TGI (UACC-257 melanoma): > 100 µM
- GI50 (UACC-62 melanoma): 19.2 µM
- TGI (UACC-62 melanoma): 63.7 µM
- GI50 (UO-31 renal): 56.8 µM
- TGI (UO-31 renal): > 100 µM
